Experimental data: patent EP0492136A2, “Retroviral protease inhibitors derived from 3-chloro-2-chloromethyl-1-propene” (AMERICAN CYANAMID COMPANY, priority 1990, dated 1992)
pIC50: −log10 of the molar value.

What was measured:
HIV-1 protease = target: T1, HIV-1 protease (Human immunodeficiency virus type 1 group M subtype B, UniProt P04585); experiment: in vitro inhibition of HIV-1 protease (octapeptide substrate cleavage, HPLC); assay type: biochemical; conditions: substrate H-Val-Ser-Gln-Asn-Tyr-Pro-Ile-Val-OH
T1 construct: HIV-1 protease is available for purchase from Medigenics; purchased Medigenics, 701 Mercy Rd., Suite 420, Omaha, Nebraska 68106
Experimental: HIV-1 protease is available for purchase from Medigenics, 701 Mercy Rd., Suite 420, Omaha, Nebraska 68106. Protease activity is assayed using the octapeptide H-Val-Ser-Gln-Asn-Tyr-Pro-Ile-Val-OH as the substrate. Cleavage of the substrate is quantitated by measuring the production of H-Val-Ser-Gln-Asn-Tyr-OH by HPLC analysis by the method described by Tomaselli et al., (cited previously).

HIV-1 strain IIIB = experiment: inhibition of growth of HIV-1 in MT-2 cells, CPE (cell death) measured with MTT dye; assay type: cell-based; conditions: T lymphoid MT-2 cell lines, after 5 days; for inhibition at 2.5 µg/mL / inhibition at 0.625 µg/mL: Human immunodeficiency virus 1, IIIB, MT2, 120 h, read-out: % Inhibition at Concentration
Text: In Table 3 data is shown for the ability of these compounds to inhibit growth of HIV-1 strain IIIB in T lymphoid MT-2 cell lines. The endpoint of these experiments after 5 days is CPE (cell death) measured with the metabolic MTT dye.

[1] = test system: HTLV-IIIB strain of HIV-1; experiment: anti-HIV-1 activity in H9 based tissue culture, supernatant p24 antigen; assay type: cell-based; conditions: for inhibition at 0.2 µg/mL / inhibition at 2 µg/mL / inhibition at 20 µg/mL: Human immunodeficiency virus 1, IIIB, read-out: % Inhibition p24; for % Inhibition p24: H9 culture, relative to infected control cultures
Experimental: Compounds are also tested for their ability to act as anti-HIV-1 compounds in tissue culture. The tests are performed in H9 based tissue culture challenged with HTLV-IIIB strain of HIV-1. The assay consists of evaluating the percent inhibition of supernatent p24 antigen concentrations relative to infected control cultures, as well as percent viable cells at 20 µg/ml in uninfected cells.

Molecule `O=C(NCC1CCCCC1)C(Cc1ccccc1)CC(O)CC(Cc1ccccc1)C(=O)NCC1CCCCC1` (stereo not drawn) [Example 42] has a pIC50 (HIV-1 protease) of 4.30.
In the case of `CC(C)(C)NC(=O)C1CCCCN1CC(O)(CO)CN1CCCCC1C(=O)NC(C)(C)C` (single isomer, unassigned) [58 (Isomer B)], the pIC50 (HIV-1 protease) was 4.00.
`CC(C)(C)NC(=O)C1CCCCN1CC(O)(CO)CN1CCCCC1C(=O)NC(C)(C)C` (single isomer, unassigned) [58 (Isomer A)] was tested, and the pIC50 (HIV-1 protease) was under 3.00.
With `O=C(NC1CCCC1)C(Cc1ccccc1)CC(O)CC(Cc1ccccc1)C(=O)NC1CCCC1` (stereo not drawn) [Example 39] the pIC50 (HIV-1 protease) was 8.00.
For `O=C(NC1CCCCC1Nc1ccncc1)C(Cc1ccccc1)CC(O)CC(Cc1ccccc1)C(=O)NC1CCCCC1Nc1ccncc1` (stereo not drawn) [Example 323, [1S-[1α[2R*,6R*,7(1R*,2R*)],2β]]-4-Hydroxy-2,6-bis(phenylmethyl)-N,N'-bis[[(4-pyridyl)amino]cyclohexyl]-heptanediamde], the pIC50 (HIV-1 protease) was 7.00, the “% Inhibition at Concentration” value (HIV-1 strain IIIB; 2.5 µg/ml) was 3.1% and the “% Inhibition at Concentration” value (HIV-1 strain IIIB; .625 µg/ml) was 0.2%.
Molecule `O=C(NC1CCCCC1)[C@H](Cc1ccccc1)CC(O)C[C@@H](Cc1ccccc1)C(=O)NC1CCCCC1` [Example 330, [R-(R*,R*)]-N,N'dicyclohexyl-4-hydroxy-2,6-bis(phenylmethyl) heptanediamide] has an inhibition at 0.2 µg/mL [1] of 0%, an inhibition at 2 µg/mL [1] of 0% and an inhibition at 20 µg/mL [1] of 0%. The pIC50 (HIV-1 protease) was 7.00.
Work on `O=C(NC1CCCCC1Nc1cccnc1)C(Cc1ccccc1)CC(O)CC(Cc1ccccc1)C(=O)NC1CCCCC1Nc1cccnc1` (stereo not drawn) [Example 324, [1S-[1α[2R*,6R*,7(1R*,2R*)],2β]]-4-Hydroxy-2,6-bis(phenylmethyl)-N,N'-bis[[(3-pyridyl)amino]cyclohexyl]-heptanediamde] yielded a pIC50 (HIV-1 protease) of 7.00.
`CC(C)(C)OC(=O)NC1CCCCC1NC(=O)C(Cc1ccccc1)CC(O)CC(Cc1ccccc1)C(=O)NC1CCCCC1NC(=O)OC(C)(C)C` (stereo not drawn) [Example 46] was tested, and the pIC50 (HIV-1 protease) was 6.10.
With `CC(C)CNC(=O)[C@H](Cc1ccccc1)CC(O)C[C@@H](Cc1ccccc1)C(=O)NCC(C)C` (relative stereo) [Example 331, [R,(R*,R*)-N,N'-4-hydroxy-N,N'-bis(2-methylpropyl)-2,6-bis(phenylmethyl)heptanediamide] the pIC50 (HIV-1 protease) was 6.30.
With `CC(C)(C)NC(=O)CN(Cc1ccccc1)CC(O)(CO)CN(CC(=O)NC(C)(C)C)Cc1ccccc1` [Example 52] the inhibition at 0.2 µg/mL [1] was 0%, the inhibition at 2 µg/mL [1] was 0% and the inhibition at 20 µg/mL [1] was 90%. The pIC50 (HIV-1 protease) was 5.30.
`CCC(C)C(NC(=O)C(Cc1ccccc1)CC(O)CC(Cc1ccccc1)C(=O)NC(C(=O)NCc1nc2ccccc2[nH]1)C(C)CC)C(=O)NCc1nc2ccccc2[nH]1` (stereo not drawn) [Example 329, [1S-[1R*[2S*,6S*,7(1R*,2R*)],2R*]]-4-Hydroxy-2,6-bis(phenylmethyl)-N,N'-bis[1-[[(1-H-benzimidazoyl-2ylmethyl)amino]carbonyl]-2-methylbutyl]heptanediamide] showed a pIC50 (HIV-1 protease) of 8.30, an inhibition at 2.5 µg/mL (HIV-1 strain IIIB; 2.5 µg/ml) of 97.9% and an inhibition at 0.625 µg/mL (HIV-1 strain IIIB; .625 µg/ml) of 92.5%.
`CC(C)(C)NC(=O)C(Cc1ccccc1)CC(O)CC(Cc1ccccc1)C(=O)NC(C)(C)C` (stereo not drawn) [Example 36] was tested, and the pIC50 (HIV-1 protease) was 7.00.
For `CC(=O)NC1CCCCC1NC(=O)C(Cc1ccccc1)CC(O)CC(Cc1ccccc1)C(=O)NC1CCCCC1NC(C)=O` (stereo not drawn) [Example 326, [1S-[1α[2R*,6R*,7(1R*,2R*)],2β]]-4-Hydroxy-2,6-bis(phenylmethyl)-N,N'-bis[[(2-acetyl)amino]cyclohexyl]-heptanediamde], the “% Inhibition p24” value ([1]; 2 µg/ml) was 0%, the “% Inhibition p24” value ([1]; 20 µg/ml) was 3% and the “% Inhibition p24” value ([1]; .2 µg/ml) was 0%. The pIC50 (HIV-1 protease) was 7.00.
In the case of `O=C(Cc1ccccn1)NC1CCCCC1NC(=O)C(Cc1ccccc1)CC(O)CC(Cc1ccccc1)C(=O)NC1CCCCC1NC(=O)Cc1ccccn1` (stereo not drawn) [Example 327, [1S-[1α[2R*,6R*,7(1R*,2R*)],2β]]-4-Hydroxy-2,6-bis(phenylmethyl)-N,N'-bis[[((2-pyridyl)acetyl)amino]cyclohexyl]-heptanediamde], the pIC50 (HIV-1 protease) was 7.00, the “% Inhibition at Concentration” value (HIV-1 strain IIIB; 2.5 µg/ml) was 3.2% and the “% Inhibition at Concentration” value (HIV-1 strain IIIB; .625 µg/ml) was 3.2%.
`CCOC(=O)CN(Cc1ccccc1)CC(O)(CO)CN(CC(=O)OCC)Cc1ccccc1` [Example 55] was tested, and the inhibition at 0.2 µg/mL [1] was 0%, the inhibition at 2 µg/mL [1] was 0% and the inhibition at 20 µg/mL [1] was 0%. For the same molecule, the pIC50 (HIV-1 protease) was 4.00.
With `O=C(NC1CCCCC1Nc1ccccn1)C(Cc1ccccc1)CC(O)CC(Cc1ccccc1)C(=O)NC1CCCCC1Nc1ccccn1` (stereo not drawn) [Example 325, [1S-[1α[2R*,6R*,7(1R*,2R*)],2β]]-4-Hydroxy-2,6-bis(phenylmethyl)-N,N'-bis[[(2-pyridyl)amino]cyclohexyl]-heptanediamde] the pIC50 (HIV-1 protease) was 7.00, the “% Inhibition at Concentration” value (HIV-1 strain IIIB; 2.5 µg/ml) was 3.8% and the “% Inhibition at Concentration” value (HIV-1 strain IIIB; .625 µg/ml) was 0.0%.
`CC(C)(C)NC(=O)CN(Cc1ccccc1)CC(O)CN(CC(=O)NC(C)(C)C)Cc1ccccc1` [Example 53] showed a pIC50 (HIV-1 protease) of 4.00.
In the case of `CCOC(=O)CN(Cc1ccccc1)CC(O)(CO)CN(CC(=O)NC(C)(C)C)Cc1ccccc1` (stereo not drawn) [Example 54], the pIC50 (HIV-1 protease) was 4.00.
`CC(C)C(NC(=O)C(Cc1ccccc1)CC(O)CC(Cc1ccccc1)C(=O)NC(C(=O)NCc1nc2ccccc2[nH]1)C(C)C)C(=O)NCc1nc2ccccc2[nH]1` (stereo not drawn) [Example 328, [1S-[1R*[2S*,6S*,7R*],2R*]]-4-Hydroxy-2,6-bis(phenylmethyl)-N,N'-bis[1-[[(1-H-benzimidazoyl-2ylmethyl)amino]carbonyl]-2-methylpropyl]-heptanediamide] gave a pIC50 (HIV-1 protease) of 8.30, an inhibition at 2.5 µg/mL (HIV-1 strain IIIB; 2.5 µg/ml) of 72.8% and an inhibition at 0.625 µg/mL (HIV-1 strain IIIB; .625 µg/ml) of 17.1%.
In the case of `CCOC(=O)CN(CC1CCCCC1)CC(O)(CO)CN(CC(=O)OCC)CC1CCCCC1` [Example 60], the pIC50 (HIV-1 protease) was 4.30.
`COC(=O)[C@H](Cc1ccccc1)NC(=O)[C@@H](NC(=O)[C@H](Cc1ccccc1)CC(O)C[C@@H](Cc1ccccc1)C(=O)N[C@H](C(=O)N[C@@H](Cc1ccccc1)C(=O)OC)C(C)C)C(C)C` [Example 110, [R-(R*,R*)]-N^ω,N^ω'-(2,6-Bis(phenylmethyl)-4-hydroxy-1,7-dioxo-1,7-heptanediyl)bis[N-L-valyl-L-phenylalanine] dimethyl ester] gave a pIC50 (HIV-1 protease) of 8.00, an inhibition at 2.5 µg/mL (HIV-1 strain IIIB; 2.5 µg/ml) of 58.7% and an inhibition at 0.625 µg/mL (HIV-1 strain IIIB; .625 µg/ml) of 16.6%.
